Measurements from patent publication US20110009376A1, “PROPHYLACTIC OR THERAPEUTIC AGENT FOR EYE DISEASE ACCOMPANIED BY OPTIC NERVE DISORDER” (priority 2008, published 2011).

Experiments:
chick retinal cells = chick retinal cells in an embryonic stage; cited from earlier work
[1] = test system: cells in the retinal ganglion cell layer; assay: Rat model of ischemia/reperfusion-induced retinal damage; type: in vivo; settings: oral, twice daily for 12 days, eyes taken 7 days after ischemia/reperfusion
Protocol: The usefulness of Ebselen against retinal ischemia/reperfusion damage was evaluated using a rat model of ischemia/reperfusion-induced retinal damage (Ophthalmologica. 1991; 203: 138-147) as a model for studying an effect on retinal damage induced by ischemia/reperfusion.
A 1% (w/v) atropine sulfate hydrate ophthalmic solution (manufactured by Nihon Tenganyaku, Co. Ltd., product name: Nitten ATROPINE Ophthalmic Solution 1%) was instilled into the eye of a rat (Slc:SD, male, about 7 weeks old) to cause mydriasis, and general anesthesia was induced by allowing the rat to inhale a gas obtained by vaporizing 3% (v/v) halothane (manufactured by Takeda Pharmaceutical Company Limited., product name: Fluothane) by a mixed gas (2 L/min) of 100% (v/v) oxygen (0.5 L/min) and 100% (v/v) nitrous oxide (1.5 L/min), and the anesthesia was maintained under conditions of 1% (v/v) halothane. […] From the 8 sections, 3 sections were arbitrarily selected, and with respect to the selected sections, a photograph of the retina in the range of from 1 to 1.5 mm on the left or right side from the optic nerve head was taken, and the number of cells in the retinal ganglion cell layer was measured. […]

[2] = test system: photoreceptor cells (visual cells); settings: ischemia/reperfusion rabbit model; cited from earlier work
NQO-1 = assay: Induction of gene expression in rat fetus-derived retinal neuron culture system (quantitative PCR); type: cell-based; settings: mean ± standard deviation, normalized to GAPDH
Protocol: (§1) Test 1: Study of Ability to Induce Expression of Genes of Phase II Xenobiotic Metabolizing Enzyme and Antioxidant Enzyme using Rat Fetus-Derived Retinal Neuron Culture System
(§2) The ability of Ebselen to induce the expression of genes of a phase II xenobiotic metabolizing enzyme and an antioxidant enzyme was evaluated using a rat fetus-derived retinal neuron culture system (Brain Res. 2003; 967: 257-66) Incidentally, the rat fetus-derived retinal neuron culture system has been extensively used as a technique for culturing retinal neurons and has been widely used as one of the tools for studying optic nerve diseases such as glaucoma.
(§3) Retinal neurons of a rat fetus (Slc:Wistar/ST, 18 days old) were isolated and seeded onto a polyethyleneimine-coated plastic coverslip. Then, the cells were cultured for 3 days in an Eagle's minimum essential medium supplemented with 10% fetal bovine serum. Thereafter, a solvent (0.1% ethanol) or Ebselen was added thereto to give a final concentration of 25 μM, and the cells were incubated in the culture medium. Incidentally, the culture was performed under the conditions of 37° C. and 5% CO2. The culture medium was removed at each time point of 4, 8, or 12 hours after initiation of incubation. A mixed solution was prepared by adding 1% (v/v) β-mercaptoethanol (manufactured by BioRad, Cat No. 161-0710) to Buffer RLT attached to RNeasy Mini Kit (250) (manufactured by QIAGEN, Cat No. 74106), and the retinal neurons on the plastic coverslip were lysed with the thus prepared mixed solution. The total RNA was extracted from the resulting cell lysate according to the protocol attached to the RNeasy Mini Kit (250), and cDNA was synthesized using ExScript™ RT reagent Kit (manufactured by TAKARA, Cat No. RR035B). According to the protocol attached to SYBR Premix Ex Taq (Perfect Real Time) (manufactured by TAKARA, Cat No. RR041B), SYBR Premix Ex Taq (Perfect Real Time), ROX Reference Dye, the synthesized cDNA, and each primer pair of glyceraldehyde-3-phosphate dehydrogenase (hereinafter also referred to as “GAPDH”), GCLM, TRxR, HO-1, or NQO-1 (manufactured by Nihon Gene Research Laboratories Inc.) were mixed, and PCR reaction was performed using a quantitative PCR system (manufactured by Applied Biosystems, system name: ABI PRISM 7000), and the expression level of each of the genes of GAPDH, GCLM, TRxR, HO-1, and NQO-1 was measured. From the obtained results, a relative expression level of each target gene was calculated by normalizing the expression level of each target gene with the expression level of GAPDH which is a housekeeping gene according to the equation 1. Further, an induction ratio (%) of each target gene to the vehicle group was obtained by dividing the value of the expression level of each gene in the 25 μM Ebselen group by a mean value of the expression level of the same gene in the vehicle group according to the equation 2. Each data was shown as the mean±standard deviation of three independent experiments.
(§4) Relative expression level of each target gene=(Expression level of each gene/Expression level of GAPDH) [Equation 1]
(§5) Induction ratio of each target gene to vehicle group (%)=(Expression level of each gene in 25 μM Ebselen group/Expression level of each gene in vehicle group) [Equation 2]

HO-1 = assay: as above; type: cell-based; settings: mean ± standard deviation, normalized to GAPDH
Protocol: as §1, §2, §3, §4, §5

TRxR = assay: as above; type: cell-based; settings: mean ± standard deviation, normalized to GAPDH
Protocol: as §1, §2, §3, §4, §5

GCLM = assay: as above; type: cell-based; settings: mean ± standard deviation, normalized to GAPDH
Protocol: as §1, §2, §3, §4, §5

O=c1c2ccccc2[se]n1-c1ccccc1 [Ebselen, 2-phenyl-1,2-benzisoselenazol-3(2H)-one]
Effect on cell death caused by glutamate excitotoxicity (chick retinal cells): inhibited the cell death caused by glutamate excitotoxicity | Suppression ratio against decrease in the number of cells in retinal ganglion cell layer ([1]; 3 mg/kg/day): 38.0% | Suppression ratio against decrease in the number of cells in retinal ganglion cell layer ([1]; 30 mg/kg/day): 59.7% | Effect on b-wave of the electroretinogram (ERG) after ischemia/reperfusion [2]: attenuated the reduction of the b-wave | Induction ratio of expression of NQO-1 gene in 25 μM Ebselen group to vehicle group (NQO-1; after 4 hours): 450 ± 74% | Induction ratio of expression of NQO-1 gene in 25 μM Ebselen group to vehicle group (NQO-1; after 8 hours): 937 ± 183% | Induction ratio of expression of NQO-1 gene in 25 μM Ebselen group to vehicle group (NQO-1; after 12 hours): 1266 ± 212% | Induction ratio of expression of HO-1 gene in 25 μM Ebselen group to vehicle group (HO-1; after 4 hours): 1263 ± 365% | Induction ratio of expression of HO-1 gene in 25 μM Ebselen group to vehicle group (HO-1; after 8 hours): 1458 ± 307% | Induction ratio of expression of HO-1 gene in 25 μM Ebselen group to vehicle group (HO-1; after 12 hours): 1311 ± 237% | Induction ratio of expression of TRxR gene in 25 μM Ebselen group to vehicle group (TRxR; after 4 hours): 225 ± 11% | Induction ratio of expression of TRxR gene in 25 μM Ebselen group to vehicle group (TRxR; after 8 hours): 193 ± 13% | Induction ratio of expression of TRxR gene in 25 μM Ebselen group to vehicle group (TRxR; after 12 hours): 301 ± 26% | Induction ratio of expression of GCLM gene in 25 μM Ebselen group to vehicle group (GCLM; after 4 hours): 198 ± 18% | Induction ratio of expression of GCLM gene in 25 μM Ebselen group to vehicle group (GCLM; after 8 hours): 194 ± 14% | Induction ratio of expression of GCLM gene in 25 μM Ebselen group to vehicle group (GCLM; after 12 hours): 172 ± 13%
